According to patent US7772225B2, “N-sulfamoyl-piperidineamides for the treatment or inhibition of obesity and related conditions” (Solvay Pharmaceuticals GmbH, priority 2005, dated 2010):

Assays:
[1] = target: T1, human carbonic anhydrase isoenzyme II (hCA II) (Homo sapiens, UniProt P00918); experiment: In vitro inhibition of human carbonic anhydrase isoenzyme II (hCA II), dansylamide fluorescence; type: binding; conditions: hCA II from erythrocytes 10^-7 M/L, read at 60 min 37° C., single measurements, read-out: IC50 (hCA II inhibiting effect in vitro)
T1 construct: human carbonic anhydrase isoenzyme II from erythrocytes (Sigma-Aldrich); purchased Sigma-Aldrich; host or cells: human erythrocytes (natural source)
Experimental: 1. In Vitro Inhibition of Human Carbonic Anhydrase Isoenzyme II (hCA II)
The test compounds of Formula I in 96 well microplates were diluted with aqua bidest by using an automatic pipettor (CyBiWell®). From the different dilution plates, aliquots of 20 μl were transferred to the 96 well black assay plates with a pipetting station (Tecan Genesis®). In a second step, 148 μl of potassium phosphate buffer (20 mM, pH 7.4) was added, and as a third step, 20 μl of enzyme solution (1 μM human carbonic anhydrase isoenzyme II from erythrocytes (Sigma-Aldrich), dissolved in potassium phosphate buffer) incubated for 60 min at room temperature and the fluorescence signal (Tecan Ultra® fluorescence reader; excitation wavelength: 280 nm; emission wavelength: 465 nm) read at the end of the preincubation period (FLU-1). After the preincubation time, 20 μl of aqueous dansylamide solution (1 mM dansylamide (Sigma-Aldrich), dissolved in hydrochloric acid) were added and the fluorescence signal read every 10 min for a period of 60 min at 37° C. For calculation, the fluorescence data of the time point 60 min (FLU-2) were used. The total volume of assay mixture amounted to 208 μl. The final concentration of carbonic anhydrase II was 10^−7 M/L, of dansylamide 2.25×10^−6 and of compounds from 10^−8 M/L up to 10^−5 M/L. Final concentration of DMSO as compound solvent was 0.1 mM. […]

C57B1/6 mice = experiment: Acute in vivo food intake test in mice; conditions: 24 h food intake, 100 mg/kg/day oral gavage in two half doses, high caloric diet, male or female mice
Experimental: 2. Acute In Vivo Food Intake Test in Mice
The studies were carried out in male or female C57B1/6 mice (n=8-12 per group). The mice were kept on an inverted 12/12h light/dark cycle (lights on 22:00). They were allowed food (high caloric diet) and water ad libitum. Food intake and water consumption was measured daily. The test compound of Formula I was suspended in 1% methylcellulose in water and 2% (v/v) of Poloxamer 188 (Lutrol F68®) and administered by oral gavage at a dose of 100 mg/kg/day. One half of the dose was administered at 7.00-9.00 h; the remaining half of the dose was administered between 15.00-15.30 h.
In the test model described above, the test substances caused a decrease of the animals' 24 h food intake to the percentages of food intake when compared to control as given in the following Table 2.

In the case of `NS(=O)(=O)N1CCC(N(C(=O)Nc2ccc(C(F)(F)F)cc2)c2cccnc2)CC1`, the melting point is reported as 188 to 191 °C.
For `NS(=O)(=O)N1CCC(N(Cc2ccccc2)C(=O)Nc2ccccc2)CC1` [Example 28], the IC50 [1] was 6.6 µM.
With `NS(=O)(=O)N1CCC(n2c(=O)[nH]c3ccccc32)CC1` [Example 10] the IC50 [1] was 7.3 µM.
For `NS(=O)(=O)N1CCC(NC(=O)Nc2ccc(F)cc2)CC1` [Example 1, 4-{[[(4fluorophenyl)amino]-carbonyl]amino}piperidine-1-sulfonamide], the “food intake [% of control]” value (C57B1/6 mice) was 83 % of control.
